Blank lines part the entries; values can stand above or below the compound they belong to. *1 amine or outer side, *2 acyl side, *3 side chain or, on linkers, in order; H or OH if unused. Where a SMILES comes first, the peptide text is derived from it. [ ]: non-standard residue; d: D form. The star is where a group is joined. X1 = O=C(C(=Cc1ccccc1)N[*:1])[*:2]; Cbz = O=C(OCc1ccccc1)*
Legend:
[1] = system: angiotensin I converting enzyme; assay: Inhibition of angiotensin I converting enzyme; type: biochemical
[2] = Enzymolysis with chymotrypsin (stability to enzymatic hydrolysis); type: in vitro ADME; details: chymotrypsin; 2 hours at 37°, tris buffer pH 8; ninhydrin color; read-out: hydrolysis by α-chymotrypsin
Method: (§1) One purpose in introducing unsaturation into a peptide chain is to increase the binding of the peptides to active sites and protect the peptide from enzymatic cleavage, e.g. hydrolysis, in the bloodstream, thus enhancing activity. One method of measuring the stability of peptides to enzymatic hydrolysis is to treat the peptides with chymotrypsin which is specific for phenyl bonds.
(§2) A solution of 46 mg of N-Carbobenzoxy-L-prolyl-dehydrophenylalanyl-L-phenylalanine in 4 ml of methanol/water (1:1) was diluted to 10 ml with a 0.05 N tris buffer solution (pH 8) containing 0.46 mg of α-chymotrypsin. After standing 2 hours at 37° in a constant temperature bath, a 0.5 ml sample was treated with 0.5 ml of a 1.25% acetone solution of ninhydrin.

renin = assay: Renin inhibition; type: biochemical
blood pressure = assay: Guinea pig blood pressure test; type: in vivo; details: relative to BDK = 100%
guinea pig ileum = assay: Guinea pig ileum contraction assay
Excerpt: This analog can also be made by solid phase protein synthesis.

α-chymotrypsin = assay: Enzymolysis with chymotrypsin (stability to enzymatic hydrolysis); type: in vitro ADME
Method: as §1, §2

Compound: O=C(O)[C@H](Cc1ccccc1)NC(=O)[C@H](Cc1ccccc1)NC(=O)[C@@H]1CCCN1C(=O)OCc1ccccc1 [ZPro-Phe-Phe.OH, reference compound] (Cbz-Pro-Phe-Phe-OH)
metabolised at 2 h [2]: 5%

Compound: COC(=O)[C@H](Cc1ccccc1)NC(=O)[C@@H](NC(=O)C(=Cc1ccccc1)NC(=O)[C@@H](N)CC(C)C)C(C)C [leudehydrophe-val-phe.OMe, Leucyl-dehydrophenylalanyl-valyl-phenylalanine methyl ester]
inhibition of renin (renin): inhibits renin

Compound: N=C(N)NCCC[C@H](NC(=O)[C@H](Cc1ccccc1)NC(=O)[C@@H]1CCCN1C(=O)[C@H](CO)NC(=O)C(=Cc1ccccc1)NC(=O)CNC(=O)[C@@H]1CCCN1C(=O)[C@@H]1CCCN1C(=O)[C@@H](N)CCCNC(=N)N)C(=O)O [dehydro BDK, Arginyl-prolyl-prolyl-glycyl-dehydrophenylalanylseryl-prolyl-phenylalanyl-arginine] (H-RPPG[X1]SPFR-OH)
reduction of blood pressure, BDK as the standard at 100% (blood pressure; given intra-arterially): 277.7%
decrease of blood pressure, BDK as the standard at 100% (blood pressure; given intravenously): 6250%
increase in contraction, BDK as the standard at 100% (guinea pig ileum; guinea pig ileum, relative to BDK = 100%): 247.6%

Compound: O=C(N[C@@H](Cc1ccccc1)C(=O)O)C(=Cc1ccccc1)NC(=O)[C@@H]1CCCN1C(=O)OCc1ccccc1 [N-Carbobenzoxy-L-prolyl-dehydrophenylalanyl-L-phenylalanine]
ninhydrin color formed after α-chymotrypsin treatment (α-chymotrypsin; 2 hours at 37°, tris buffer pH 8, methanol/water, compared with blank solution): matched that of a blank solution
stability to chymotrypsin (α-chymotrypsin; treatment with chymotrypsin): stable to chymotrypsin

Compound: Tyr-DAla-Gly-ΔPhe-Met-NH2 Acetate
activity in the guinea pig ileum contraction assay (guinea pig ileum): active

The remaining lines, values ahead:

inhibition of angiotensin I converting enzyme [1]: inhibit angiotensin I converting enzyme
Compound: CC(C)C[C@H](NC(=O)[C@H](Cc1c[nH]cn1)NC(=O)C(=Cc1ccccc1)NC(=O)[C@@H]1CCCN1C(=O)OCc1ccccc1)C(=O)O [Z-Pro-ΔPhe-His-Leu.OH]

inhibition of angiotensin I converting enzyme [1]: inactive
Compound: CC(C)C[C@H](NC(=O)[C@H](Cc1c[nH]cn1)NC(=O)C(=Cc1ccccc1)NC(=O)[C@@H]1CCCN1)C(=O)O [tetrapeptide freed of the blocking group, H.Pro-ΔPhe-His-Leu.OH.2HBr]
